Target: FAK kinase (catalytic construct FAK(410-689)) (Homo sapiens (Human), UniProt Q05397)
Test: FAKcd kinase ELISA (inhibition of poly-glu-tyr phosphorylation by FAK(410-689))
Assay type: biochemical
Conditions: 50 μM final ATP
Experimental: A. In-Vitro Activity of FAK:
The assay protocol has three parts:
3. […] 4. […] 5. […] 6. […] 7. […] 9. […] 10. […] 12. […] 13. […] 14. Aliquot the FAKcd protein and store frozen at −80° C. II. FAK Activation 1. […] At t120 (t=120 minutes), add 10 μl of 150 mM ATP. […] Add 180 μl aliquots of the desalted material to NiNTA spin column and incubate on spin column 4. […] FAKcd Kinase ELISA 1. Coat 96-well Nunc MaxiSorp plates with poly-glu-tyr (pGT) at […]: Prepare 10 μg/ml of pGT in PBS and aliquot 100 μl/well. Incubate the plates at 37° C. overnight, aspirate the supernatant, wash the plates 3 times with Wash Buffer, and flick to dry before storing at 4° C. 2. Prepare compound stock solutions of 2.5 mM in 100% DMSO. The stocks are subsequently diluted to 60× of the final concentration in 100% DMSO, and diluted 1:5 in Kinase Phosphorylation Buffer. 3. […] Add 80 μl to each well for a final ATP concentration of 50 μM. 4. […] 5. Dilute on ice, FAKcd protein to 1:1000 in Kinase Phosphorylation Buffer. Dispense 30 μl per well. 6. Note: Linearity and the appropriate dilution must be pre-determined for each batch of protein. The enzyme concentration selected should be such that quantitation of the assay signal will be approximately 0.8-1.0 at OD450, and in the linear range of the reaction rate. 7. Prepare both a No ATP control (noise) and a No Compound Control (Signal): 8. (Noise) One blank row of wells receives 10 μl of 1:5 diluted compounds in DMSO, 80 μl of Phosphorylation buffer (minus ATP), and 30 μl FAKcd solution. 9. […] 10. Incubate reaction at room temperature for 15 minutes with gentle shaking on a plate shaker. 11. Terminate the reaction by aspirating off the reaction mixture and washing 3 times with wash buffer. 12. Dilute phospho-tyrosine HRP-conjugated (pY20HRP) antibody to 0.250 μg/ml (1:1000 of Stock) in blocking buffer. Dispense 100 μl per well, and incubate with shaking for 30 minutes at 25°. 13. Aspirate the supernatant and wash the plate 3 times with wash buffer. 14. Add 100 μl per well of room temperature TMB solution to initiate color development. Color development is terminated after approximately 15-30 sec. by the addition of 100 μl of 0.09M H2SO4 per well. 15. The signal is quantitated by measurement of absorbance at 450 nm on the BioRad ricroplate reader or a microplate reader capable of reading at OD450. 16. Inhibition of tyrosine kinase activity would result in a reduced absorbance signal. […] The values are reported as IC50s, μM concentration. FAK Inducible cell-based ELISA: Final Protocol Materials: […]

Sequence of FAK kinase (catalytic construct FAK(410-689)) (Q05397 410-689): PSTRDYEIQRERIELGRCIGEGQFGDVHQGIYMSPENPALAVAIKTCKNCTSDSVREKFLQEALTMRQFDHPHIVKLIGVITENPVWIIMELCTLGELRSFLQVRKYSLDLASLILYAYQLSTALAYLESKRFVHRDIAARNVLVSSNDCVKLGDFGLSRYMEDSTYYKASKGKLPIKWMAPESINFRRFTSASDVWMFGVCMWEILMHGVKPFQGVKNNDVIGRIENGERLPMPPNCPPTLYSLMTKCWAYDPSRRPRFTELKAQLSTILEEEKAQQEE

## CN(c1ncccc1CNc1nc(Nc2ccc(C(=O)N3CC[C@H](F)C3)cc2)ncc1C(F)(F)F)S(C)(=O)=O (stereo in doubt) [Compound 235, N-[3-({[2-({4-[(3-fluoropyrrolidin-1-yl)carbonyl]phenyl}amino)-5-(trifluoromethyl)pyrimidin-4-yl]amino}methyl)pyridin-2-yl]-N-methylmethane-sulfonamide]
  IC50: 0.6 nM

## CC(N)c1ccc(Nc2ncc(C(F)(F)F)c(NCc3nccnc3N(C)S(C)(=O)=O)n2)cc1 (stereo in doubt) [Compound 351, N-[3-({[2-({4-[(1R)-1-aminoethyl]phenyl}amino)-5-(trifluoromethyl)pyrimidin-4-yl]amino}methyl)pyrazin-2-yl]-N-methylmethane-sulfonamide]
  IC50: 0.616 nM

## CC(N)c1ccc(Nc2ncc(C(F)(F)F)c(NCc3ccccc3N(C)S(C)(=O)=O)n2)cc1 (stereo in doubt) [Compound 362, N-[2-({[2-({4-[(1R)-1-aminoethyl]phenyl}amino)-5-(trifluoromethyl)pyrimidin-4-yl]amino}methyl)phenyl]-N-methylmethanesulfonamide]
  IC50: < 0.595 nM

## CN(c1ncccc1CNc1nc(Nc2ccc(S(N)(=O)=O)cc2)ncc1C(F)(F)F)S(C)(=O)=O [Compound 16, 4-({4-[({2-[methyl(methylsulfonyl)amino]pyridin-3-yl}methyl)amino]-5-(trifluoromethyl)pyrimidin-2-yl}amino)benzenesulfon-amide]
  IC50: 4.09 nM

## Cc1ccc(CNc2nc(Nc3ccc(S(N)(=O)=O)cc3)ncc2C(F)(F)F)c(N(C)S(C)(=O)=O)n1 [Compound 17, 4-({4-[({6-methyl-2-[methyl(methylsulfonyl)amino]pyridin-3-yl}methyl)amino]-5-(trifluoromethyl)pyrimidin-2-yl}amino)benzene-sulfonamide]
  IC50: 1.26 nM

## CS(=O)(=O)c1cccc(CNc2nc(Nc3ccc(S(N)(=O)=O)cc3)ncc2C(F)(F)F)c1 [Compound 18, 4-{[4-{[3-(methylsulfonyl)benzyl]amino}-5-(trifluoromethyl)pyrimidin-2-yl]amino}benzene-sulfonamide]
  IC50: 13.2 nM

## CN(c1ncccc1CNc1nc(Nc2ccc(C(N)=O)cc2)ncc1C(F)(F)F)S(C)(=O)=O [Compound 19, 4-({4-[({2-[methyl(methylsulfonyl)amino]pyridin-3-yl}methyl)amino]-5-(trifluoromethyl)pyrimidin-2-yl}amino)benzamide]
  IC50: 3.4 nM

## CN(c1ncccc1CNc1nc(Nc2ccc(C(N)=O)cc2)ncc1C(F)(F)F)S(C)(=O)=O [Compound 20, 4-({4-[({2-[methyl(methylsulfonyl)amino]pyridin-3-yl}methyl)amino]-5-(trifluoromethyl)pyrimidin-2-yl}amino)benzamide]
  IC50: 0.6 nM

## Cc1ccc(CNc2nc(Nc3ccc(C(N)=O)cc3)ncc2C(F)(F)F)c(N(C)S(C)(=O)=O)n1 [Compound 21, 4-({4-[{{6-methyl-2-[methyl(methylsulfonyl)amino]pyridin-3-yl}methyl)amino]-5-(trifluoromethyl)pyrimidin-2-yl}amino)benzamide]
  IC50: 1 nM

## CN(c1ncccc1CNc1nc(Nc2ccc(S(C)(=O)=O)nc2)ncc1C(F)(F)F)S(C)(=O)=O [Compound 23, N-methyl-N-[3-({[2-{[6-(methylsulfonyl)pyridin-3-yl]amino}-5-(trifluoromethyl)pyrimidin-4-yl]amino}methyl)pyridin-2-yl]methanesulfonamide]
  IC50: 68.6 nM

## CS(=O)(=O)c1cccc(CNc2nc(Nc3ccc(S(C)(=O)=O)nc3)ncc2C(F)(F)F)c1 [Compound 24, N-4-[3-(methylsulfonyl)benzyl]-N-2-[6-(rnethylsulfonyl)pyridin-3-yl]-5-(trifluoromethyl)-pyrimidine-2,4-diamine]
  IC50: 337 nM

## Cc1ccc(CNc2nc(Nc3ccc(S(C)(=O)=O)nc3)ncc2C(F)(F)F)c(N(C)S(C)(=O)=O)n1 [Compound 25, N-methyl-N-[6-methyl-3-({[2-{[6-(methylsulfonyl)pyridin-3-yl]amino}-5-(trifluoromethyl)pyrimidin-4-yl]amino}methyl)pyridin-2-yl]methanesulfonamide]
  IC50: 12.9 nM

## CN(c1cccc(CNc2nc(Nc3ccc(S(C)(=O)=O)nc3)ncc2C(F)(F)F)c1)S(C)(=O)=O [Compound 26, N-methyl-N-[3-({[2-{[6-(methylsulfonyl)pyridin-3-yl]amino}-5-(trifluoromethyl)pyrimidin-4-yl]amino}methyl)phenyl] methanesulfonamide]
  IC50: 154 nM

## CN(c1ncccc1CNc1nc(Nc2ccc(N3CCCS3(=O)=O)cc2)ncc1C(F)(F)F)S(C)(=O)=O [Compound 27, N-[3-({[2-{[4-(1,1-dioxidoisothiazolidin-2-yl)phenyl]amino}-5-(trifluoromethyl)pyrimidin-4-yl]amino}methyl)pyridin-2-yl]-N-methylmethane-sulfonamide]
  IC50: 1.38 nM

## Cc1ccc(CNc2nc(Nc3ccc(N4CCCS4(=O)=O)cc3)ncc2C(F)(F)F)c(N(C)S(C)(=O)=O)n1 [Compound 28, N-[3-({[2-{[4-(1,1-dloxidolsothiazolidin-2-yl)phenyl]amino}-5-(trifluoromethyl)pyrimidin-4-yl]amino}methyl)-6-methylpyridin-2-yl]-N-methylmethanesulfonamide]
  IC50: 2.01 nM

## CS(=O)(=O)c1cccc(CNc2nc(Nc3ccc(N4CCCS4(=O)=O)cc3)ncc2C(F)(F)F)c1 [Compound 29, N~2~-[4-(1,1-dioxidoisothiazolidin-2-yl)phenyl]-N-4~-[3-(methylsulfonyl)benzyl]-5-(trifluoromethyl)pyrimidine-2,4-diamine]
  IC50: 2.09 nM

## CN(c1ncccc1CNc1nc(Nc2ccc(CNS(C)(=O)=O)cc2)ncc1C(F)(F)F)S(C)(=O)=O [Compound 30, N-methyl-N-{3-[({2-[(4-{[(methylsulfonyl)amino]methyl}phenyl)amino]-5-(trifluoromethyl)pyrimidin-4-yl}amino)methyl]pyridin-2-yl}methanesulfonamide]
  IC50: 0.72 nM

## CN(c1ncccc1CNc1nc(Nc2cccc(CS(N)(=O)=O)c2)ncc1C(F)(F)F)S(C)(=O)=O [Compound 31, N-[3-({[2-({3-[(aminosulfonyl)methyl]phenyl}amino)-5-(trifluoronnethyl)pyrimidin-4-yl]amino}methyl)pyridin-2-yl]-N-methylmethane-sulfonatnide]
  IC50: 2.22 nM

## CN(c1ncccc1CNc1nc(Nc2cccc(CNS(C)(=O)=O)c2)ncc1C(F)(F)F)S(C)(=O)=O [Compound 33, N-methyl-N-{3-[({2-[(3-{[(methylsulfonyl)amino]methyl}phenyl)amino]-5-(trifluoromethyl)pyrimidin-4-yl}amino)methyl)pyridin-2-yl}methanesulfonamide]
  IC50: 1.33 nM

## CN(c1cccc(CNc2nc(Nc3ccc(S(N)(=O)=O)cc3)ncc2Br)c1)S(C)(=O)=O [Compound 34, 4-{[5-bromo-4-({3-[methyl(methylsulfonyl)amino]benzyl}amino)pyrimidin-2-yl)amino}benzenesulfonamide]
  IC50: 15.6 nM

## CS(=O)(=O)c1cccc(CNc2nc(Nc3ccc(S(N)(=O)=O)cc3)ncc2Br)c1 [Compound 35, 4-[(5-bromo-4-{[3-(methylsulfonyl)benzyl]amino}pyrimidin-2-yl)amino]benzene-sulfonamide]
  IC50: 17.6 nM

From US10450297B2, “Sulfonyl amide derivatives for the treatment of abnormal cell growth” (Pfizer, Inc., priority 2007, dated 2019)
